Measured values taken from article PMC10882719 (Frontiers in Neuroscience, 2024).
Like-named read-outs stand apart in the source and are kept apart here.

Tests used:
Format in all cases: cell-based
[1] = target: T1, 168 GPCRs (Homo sapiens, UniProt P21731); conditions: TBXA2R
T1 construct: host or cells: PathHunter cell lines
T1 sequence (P21731 1-343): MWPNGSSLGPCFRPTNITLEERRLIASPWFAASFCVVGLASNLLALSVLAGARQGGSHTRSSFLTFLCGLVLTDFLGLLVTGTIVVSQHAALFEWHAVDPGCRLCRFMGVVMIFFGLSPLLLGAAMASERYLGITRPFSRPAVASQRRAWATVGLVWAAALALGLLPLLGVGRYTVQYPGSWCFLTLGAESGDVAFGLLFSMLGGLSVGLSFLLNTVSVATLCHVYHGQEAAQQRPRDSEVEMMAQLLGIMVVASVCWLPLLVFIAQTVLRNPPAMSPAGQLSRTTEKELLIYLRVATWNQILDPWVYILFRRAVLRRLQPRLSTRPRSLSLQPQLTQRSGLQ

[2] = target: T2, 168 GPCRs (Homo sapiens, UniProt P21462)
T2 construct: host or cells: PathHunter cell lines
T2 sequence (P21462 1-350): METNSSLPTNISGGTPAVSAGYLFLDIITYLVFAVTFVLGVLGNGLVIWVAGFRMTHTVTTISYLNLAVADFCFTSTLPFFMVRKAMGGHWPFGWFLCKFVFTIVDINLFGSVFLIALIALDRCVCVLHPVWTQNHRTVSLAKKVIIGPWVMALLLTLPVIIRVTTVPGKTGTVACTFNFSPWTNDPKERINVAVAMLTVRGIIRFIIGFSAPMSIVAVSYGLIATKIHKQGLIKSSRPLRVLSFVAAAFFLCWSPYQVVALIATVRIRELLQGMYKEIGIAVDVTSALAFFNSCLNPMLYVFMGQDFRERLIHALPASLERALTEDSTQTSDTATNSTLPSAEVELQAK

[3] = target: T3, 168 GPCRs (Homo sapiens, UniProt P14416); conditions: DRD2L
T3 construct: host or cells: PathHunter cell lines
T3 sequence (P14416 whole entry): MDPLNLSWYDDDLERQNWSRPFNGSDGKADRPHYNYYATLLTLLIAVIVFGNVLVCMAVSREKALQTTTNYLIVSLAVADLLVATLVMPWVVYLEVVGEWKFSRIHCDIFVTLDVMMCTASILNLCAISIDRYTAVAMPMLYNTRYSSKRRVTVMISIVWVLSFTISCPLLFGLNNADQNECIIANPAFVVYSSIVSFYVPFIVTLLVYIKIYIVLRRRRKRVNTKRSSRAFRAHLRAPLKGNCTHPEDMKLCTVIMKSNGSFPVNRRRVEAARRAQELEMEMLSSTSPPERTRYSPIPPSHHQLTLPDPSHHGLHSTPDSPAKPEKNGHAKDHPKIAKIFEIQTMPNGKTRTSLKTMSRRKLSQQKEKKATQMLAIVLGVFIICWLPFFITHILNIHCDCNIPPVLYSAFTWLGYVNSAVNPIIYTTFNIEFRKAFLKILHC

[4] = target: T4, 168 GPCRs (Homo sapiens, UniProt P32249)
T4 construct: host or cells: PathHunter cell lines
T4 sequence (P32249 whole entry): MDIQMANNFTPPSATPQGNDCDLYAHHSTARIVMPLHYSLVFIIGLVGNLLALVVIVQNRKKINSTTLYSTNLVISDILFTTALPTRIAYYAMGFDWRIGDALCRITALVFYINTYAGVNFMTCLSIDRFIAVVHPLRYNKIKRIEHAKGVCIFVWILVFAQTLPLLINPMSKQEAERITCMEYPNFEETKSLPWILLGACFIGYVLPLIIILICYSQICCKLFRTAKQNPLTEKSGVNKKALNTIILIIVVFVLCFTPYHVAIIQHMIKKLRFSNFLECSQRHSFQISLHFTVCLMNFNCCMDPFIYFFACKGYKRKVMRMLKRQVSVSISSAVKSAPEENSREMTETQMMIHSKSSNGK

[5] = target: T5, 168 GPCRs (Homo sapiens, UniProt P35414)
T5 construct: host or cells: PathHunter cell lines
T5 sequence (P35414 1-380): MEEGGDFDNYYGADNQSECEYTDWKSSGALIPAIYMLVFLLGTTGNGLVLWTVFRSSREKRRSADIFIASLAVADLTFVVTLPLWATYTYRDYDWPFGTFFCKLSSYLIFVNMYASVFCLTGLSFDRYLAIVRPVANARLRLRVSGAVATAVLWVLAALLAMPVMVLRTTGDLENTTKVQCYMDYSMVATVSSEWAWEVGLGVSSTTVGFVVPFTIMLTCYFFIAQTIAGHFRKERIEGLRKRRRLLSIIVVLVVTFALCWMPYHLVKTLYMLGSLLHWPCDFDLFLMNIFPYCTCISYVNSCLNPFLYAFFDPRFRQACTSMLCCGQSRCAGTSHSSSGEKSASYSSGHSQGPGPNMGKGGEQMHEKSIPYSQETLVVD

[6] = target: T6, 168 GPCRs (Homo sapiens, UniProt P32238); conditions: CCKAR
T6 construct: host or cells: PathHunter cell lines
T6 sequence (P32238 1-428): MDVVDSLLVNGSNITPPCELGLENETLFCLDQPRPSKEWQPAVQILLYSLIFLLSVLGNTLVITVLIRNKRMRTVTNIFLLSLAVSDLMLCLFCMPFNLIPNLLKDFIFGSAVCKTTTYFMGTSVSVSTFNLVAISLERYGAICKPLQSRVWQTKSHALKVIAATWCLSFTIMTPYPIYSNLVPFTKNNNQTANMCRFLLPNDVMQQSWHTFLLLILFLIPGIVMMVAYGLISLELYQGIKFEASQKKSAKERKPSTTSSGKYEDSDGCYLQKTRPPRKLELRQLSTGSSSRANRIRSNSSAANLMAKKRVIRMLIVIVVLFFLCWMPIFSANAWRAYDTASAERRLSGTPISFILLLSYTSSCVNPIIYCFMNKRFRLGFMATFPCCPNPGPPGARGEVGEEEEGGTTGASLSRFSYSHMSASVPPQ

| SMILES | % Agonist Activity ([1]; Conc 1 uM) [%] | % Antagonist Activity ([1]; Conc 1 uM) [%] | % Agonist Activity ([1]; Conc 10 uM) [%] | % Antagonist Activity ([1]; Conc 10 uM) [%] | % Agonist Activity ([2]; FPR1, 1 uM) [%] | % Antagonist Activity ([2]; FPR1, 1 uM) [%] | % Agonist Activity ([2]; FPR1, 10 uM) [%] | % Antagonist Activity ([2]; FPR1, 10 uM) [%] | % Agonist Activity ([3]; 1 uM) [%] | % Antagonist Activity ([3]; 1 uM) [%] | % Agonist Activity ([3]; 10 uM) [%] | % Antagonist Activity ([3]; 10 uM) [%] | % Agonist Activity ([4]; EBI2, 1 uM) [%] | % Antagonist Activity ([4]; EBI2, 1 uM) [%] | % Agonist Activity ([4]; EBI2, 10 uM) [%] | % Antagonist Activity ([4]; EBI2, 10 uM) [%] | % Agonist Activity ([5]; AGTRL1, 1 uM) [%] | % Antagonist Activity ([5]; AGTRL1, 1 uM) [%] | % Agonist Activity ([5]; AGTRL1, 10 uM) [%] | % Antagonist Activity ([5]; AGTRL1, 10 uM) [%] | other results |
| --- | --- | --- | --- | --- | --- | --- | --- | --- | --- | --- | --- | --- | --- | --- | --- | --- | --- | --- | --- | --- | --- |
| CNC(C)C(=O)c1ccc2c(c1)OCO2 (stereo not drawn) [methylone] | -1.1 | -5.5 | -2.9 | -19.7 | 2.2 | -4.9 | 0.5 | -11.4 | 0.1 | 1.1 | -0.7 | 0.1 | 0.5 | 0.6 | -0.1 | -2.6 | -0.9 | -3.3 | -1.5 | -4.1 | % Agonist Activity ([6]; 1 uM): 0.1%; % Antagonist Activity ([6]; 1 uM): -4.3%; % Agonist Activity ([6]; 10 uM): -0.3%; % Antagonist Activity ([6]; 10 uM): -3.3% |
| CNC(C)Cc1ccc2c(c1)OCO2 (stereo not drawn) [MDMA, 3,4-Methylenedioxy methamphetamine, reference compound] | 2.8 | 9.4 | 1.6 | 14.2 | 4.4 | 4.5 | 3.7 | 2.5 | 3.3 | 4.8 | 2.6 | 11.7 | 0.6 | 4.4 | -0.4 | 7.9 | -0.8 | -13.4 | -0.2 | -8.4 | % Agonist Activity ([6]; 1 uM): -0.1%; % Antagonist Activity ([6]; 1 uM): -2.2%; % Agonist Activity ([6]; 10 uM): 0.4%; % Antagonist Activity ([6]; 10 uM): 0.7% |
